In data set [1] the test system is recombinant NL4-3 virus (nef section replaced with Renilla luciferase gene) in MT-2 cells. Nature of the data set: HIV cell culture assay (antiviral activity, luciferase readout). The data set is classed as cell-based. The settings on record: Renilla, NL43, MT-2 cells infected for 4-5 days with recombinant NL4-3 Renilla luciferase virus. Here is the method:
HIV cell culture assay—MT-2 cells, 293T cells and the proviral DNA clone of NL4-3 virus were obtained from the NIH AIDS Research and Reference Reagent Program. MT-2 cells were propagated in RPMI 1640 media supplemented with 10% heat inactivated fetal bovine serum (FBS), […]. The 293T cells were propagated in DMEM media supplemented with 10% heat inactivated FBS, […]. A recombinant NL4-3 proviral clone, in which a section of the nef gene was replaced with the Renilla luciferase gene, was used to make the reference virus used in these studies. The recombinant virus was prepared through transfection of the recombinant NL4-3 proviral clone into 293T cells using Transit-293 Transfection Reagent from Mirus Bio LLC (Madison, WI). Supernatant was harvested after 2-3 days and the amount of virus present was titered in MT-2 cells using luciferase enzyme activity as a marker by measuring luciferase enzyme activity. Luciferase was quantitated using the EnduRen Live Cell Substrate from Promega (Madison, WI). Antiviral activities of compounds toward the recombinant virus were quantified by measuring luciferase activity in MT-2 cells infected for 4-5 days with the recombinant virus in the presence of serial dilutions of the compound.
The 50% effective concentration (EC50) was calculated by using the exponential form of the median effect equation where (Fa)=1/[1+(ED50/drug conc.)m](Johnson V A, Byington R T. Infectivity Assay. In Techniques in HIV Research. ed. Aldovini A, Walker B D. 71-76. New York: Stockton Press. 1990). Curve fitting and analysis were performed with ActivityBase XE Runner software version 9.1.0.4 using model 203 (ID Business Solutions, LTD, Guildford, UK).

The nature of data set [2]: Compound cytotoxicity, XTT-based colorimetric assay. It counts as cell-based. The settings on record: human; uninfected MT2 cells, day 4, XTT; read-out: CC50. On the procedure: Compound cytotoxicity and the corresponding CC50 values were determined using the same protocol as described in the antiviral assay except that uninfected cells were used. Cytotoxicity was assessed on day 4 in uninfected MT2 cells by using an XTT (2,3-bis[2-Methoxy-4-nitro-5-sulfophenyl]-2H-tetrazolium-5-carboxyanilide inner salt)-based colorimetric assay (Sigma-Aldrich, St Louis, Mo).
For orientation: Tetrazolium dyes change colour on reduction, which living cells bring about.

With `COCCNc1cc(C2CCC(F)(F)CC2)nc2nc([C@H](Cc3cc(F)cc(F)c3)NC(=O)Cn3nc(C(F)F)c4c3C(F)(F)[C@@H]3C[C@H]43)n(-c3ccc(Cl)c4c(NS(C)(=O)=O)nn(CCN5C[C@@H](C)O[C@@H](C)C5)c34)c(=O)c12` (atropisomer, axis not shown; (P)) [Example 418, N-[(1S)-1-[(3P)-3-(4-chloro-1-{2-[(2R,6S)-2,6-dimethylmorpholin-4-yl]ethyl}-3-methanesulfonamido-1H-indazol-7-yl)-7-(4,4-difluorocyclohexyl)-5-[(2-methoxyethyl)amino]-4-oxo-3H,4H-pyrido[2,3-d]pyrimidin-2-yl]-2-(3,5-difluorophenyl)ethyl]-2-[(2S,4R)-9-(difluoromethyl)-5,5-difluoro-7,8-diazatricyclo[4.3.0.0^2,^4]nona-1(6),8-dien-7-yl]acetamide], the EC50 in data set [1] came out at 0.019 nM. The 50% cytotoxic concentration (CC50) at 4 days in data set [2] is > 20 nM.

Take `CS(=O)(=O)Nc1nn(CCN2CCC(F)(F)CC2)c2c(-n3c([C@H](Cc4cc(F)cc(F)c4)NC(=O)Cn4nc(C(F)F)c5c4C(F)(F)[C@@H]4C[C@H]54)nc4nc(C5CCC(F)(F)CC5)cc(C5CC5)c4c3=O)ccc(Cl)c12` (atropisomer, axis not shown; (P)) [Example 321, N-[(1S)-1-[(3P)-3-{4-chloro-1-[2-(4,4-difluoropiperidin-1-yl)ethyl]-3-methanesulfonamido-1H-indazol-7-yl}-5-cyclopropyl-7-(4,4-difluorocyclohexyl)-4-oxo-3H,4H-pyrido[2,3-d]pyrimidin-2-yl]-2-(3,5-difluorophenyl)ethyl]-2-[(2S,4R)-9-(difluoromethyl)-5,5-difluoro-7,8-diazatricyclo[4.3.0.0^2,^4]nona-1(6),8-dien-7-yl]acetamide]: the EC50 in data set [1] is 0.02 nM. In addition, the half-maximal cytotoxic concentration (CC50) at 4 days in data set [2] was > 50 nM.

Regarding `Cc1cc(C2CCC(F)(F)CC2)nc2nc([C@H](Cc3cc(F)cc(F)c3)NC(=O)Cn3nc(C4CC4)c4c3C[C@@H]3C[C@H]43)n(-c3ccc(Cl)c4c(NS(C)(=O)=O)nn([C@H](C)CN5CC(C)(C)OC(C)(C)C5)c34)c(=O)c12` (relative stereo) [Example 734, N-[(1S)-1-[(3P)-3-{4-chloro-3-methanesulfonamido-1-[(2R)-1-(2,2,6,6-tetramethylmorpholin-4-yl)propan-2-yl]-1H-indazol-7-yl}-7-(4,4-difluorocyclohexyl)-5-methyl-4-oxo-3H,4H-pyrido[2,3-d]pyrimidin-2-yl]-2-(3,5-difluorophenyl)ethyl]-2-[(2R*,4R*)-9-cyclopropyl-7,8-diazatricyclo[4.3.0.0^2,^4]nona-1(6),8-dien-7-yl]acetamide], in data set [1], the EC50 came to 0.038 nM. Also, the CC50 at 4 days in data set [2] is > 20 nM.

On to `COCCOCCn1nc(NS(C)(=O)=O)c2c(Cl)ccc(-n3c([C@H](Cc4cc(F)cc(F)c4)NC(=O)Cn4nc(C(F)F)c5c4C(F)(F)[C@@H]4C[C@H]54)nc4nc(C5CCC(F)(F)CC5)ccc4c3=O)c21` (atropisomer, axis not shown; (P)) [Example 241, N-[(1S)-1-[(3P)-3-{4-chloro-3-methanesulfonamido-1-[2-(2-methoxyethoxy)ethyl]-1H-indazol-7-yl}-7-(4,4-difluorocyclohexyl)-4-oxo-3H,4H-pyrido[2,3-d]pyrimidin-2-yl]-2-(3,5-difluorophenyl)ethyl]-2-[(2S,4R)-9-(difluoromethyl)-5,5-difluoro-7,8-diazatricyclo[4.3.0.0^2,^4]nona-1(6),8-dien-7-yl]acetamide], for which the EC50 in data set [1] turned out to be 0.018 nM. The CC50 at 4 days in data set [2] was > 50 nM.

As for `Cc1cc(C2CCC(F)(F)CC2)nc2nc([C@H](Cc3cc(F)cc(F)c3)NC(=O)Cn3nc(C(F)(F)F)c4c3C(F)(F)[C@@H]3C[C@H]43)n(-c3ccc(Cl)c4c(NS(C)(=O)=O)nn(CCCN5CCOCC5)c34)c(=O)c12` (atropisomer, axis not shown; (P)) [Example 121, N-[(1S)-1-[(3P)-3-{4-chloro-3-methanesulfonamido-1-[3-(morpholin-4-yl)propyl]-1H-indazol-7-yl}-7-(4,4-difluorocyclohexyl)-5-methyl-4-oxo-3H,4H-pyrido[2,3-d]pyrimidin-2-yl]-2-(3,5-difluorophenyl)ethyl]-2-[(2S,4R)-5,5-difluoro-9-(trifluoromethyl)-7,8-diazatricyclo[4.3.0.0^2,^4]nona-1(6),8-dien-7-yl]acetamide], the concentration for a half-maximal effect (EC50) in data set [1] is 0.027 nM. Further, the CC50 at 4 days in data set [2] is > 50 nM.

On to `Cc1cc(C2CCC(F)(F)CC2)nc2nc([C@H](Cc3cc(F)cc(F)c3)NC(=O)Cn3nc(C(F)F)c4c3C(F)(F)[C@@H]3C[C@H]43)n(-c3ccc(Cl)c4c(NS(C)(=O)=O)nn(CCN5CC(F)(F)C(F)(F)C5)c34)c(=O)c12` (atropisomer, axis not shown; (P)) [Example 247, N-[(1S)-1-[(3P)-3-{4-chloro-3-methanesulfonamido-1-[2-(3,3,4,4-tetrafluoropyrrolidin-1-yl)ethyl]-1H-indazol-7-yl}-7-(4,4-difluorocyclohexyl)-5-methyl-4-oxo-3H,4H-pyrido[2,3-d]pyrimidin-2-yl]-2-(3,5-difluorophenyl)ethyl]-2-[(2S,4R)-9-(difluoromethyl)-5,5-difluoro-7,8-diazatricyclo[4.3.0.0^2,^4]nona-1(6),8-dien-7-yl]acetamide], for which the EC50 in data set [1] turned out to be 0.047 nM. Moreover, the CC50 at 4 days in data set [2] is > 50 nM.

Take `CCc1cc(C2CCC(F)(F)CC2)nc2nc([C@H](Cc3cc(F)cc(F)c3)NC(=O)Cn3nc(C(F)F)c4c3C[C@H]3C[C@@H]43)n(-c3ccc(Cl)c4c(NS(C)(=O)=O)nn(CCOC)c34)c(=O)c12` (relative stereo) [Example 636, N-[(1S)-1-[(3P)-3-[4-chloro-3-methanesulfonamido-1-(2-methoxyethyl)-1H-indazol-7-yl]-7-(4,4-difluorocyclohexyl)-5-ethyl-4-oxo-3H,4H-pyrido[2,3-d]pyrimidin-2-yl]-2-(3,5-difluorophenyl)ethyl]-2-[(2R*,4R*)-9-(difluoromethyl)-7,8-diazatricyclo[4.3.0.0^2,^4]nona-1(6),8-dien-7-yl]acetamide]: the concentration for a half-maximal effect (EC50) in data set [1] worked out at 0.015 nM. In addition, the cytotoxic concentration (CC50) at 4 days in data set [2] was > 50 nM.

With `Cc1cc(C2CCC(F)(F)CC2)nc2nc([C@H](Cc3cc(F)cc(F)c3)NC(=O)Cn3nc(C(F)(F)F)c4c3C(F)(F)[C@@H]3C[C@H]43)n(-c3ccc(Cl)c4c(NS(C)(=O)=O)nn(CCN5CC(C)(C)OC(C)(C)C5)c34)c(=O)c12` (atropisomer, axis not shown; (P)) [Example 609, N-[(1S)-1-[(3P)-3-{4-chloro-3-methanesulfonamido-1-[2-(2,2,6,6-tetramethylmorpholin-4-yl)ethyl]-1H-indazol-7-yl}-7-(4,4-difluorocyclohexyl)-5-methyl-4-oxo-3H,4H-pyrido[2,3-d]pyrimidin-2-yl]-2-(3,5-difluorophenyl)ethyl]-2-[(2S,4R)-5,5-difluoro-9-(trifluoromethyl)-7,8-diazatricyclo[4.3.0.0^2,^4]nona-1(6),8-dien-7-yl]acetamide], the EC50 in data set [1] worked out at 0.033 nM.

On to `CC1(C)CN(CCn2nc(NS(C)(=O)=O)c3c(Cl)ccc(-n4c([C@H](Cc5cc(F)cc(F)c5)NC(=O)Cn5nc(C(F)F)c6c5C(F)(F)[C@@H]5C[C@H]65)nc5nc(C6CCC(F)(F)CC6)cc(CN6CC(F)(F)C6)c5c4=O)c32)CC(C)(C)O1` (atropisomer, axis not shown; (P)) [Example 621, N-[(1S)-1-[(3P)-3-{4-chloro-3-methanesulfonamido-1-[2-(2,2,6,6-tetramethylmorpholin-4-yl)ethyl]-1H-indazol-7-yl}-5-[(3,3-difluoroazetidin-1-yl)methyl]-7-(4,4-difluorocyclohexyl)-4-oxo-3H,4H-pyrido[2,3-d]pyrimidin-2-yl]-2-(3,5-difluorophenyl)ethyl]-2-[(2S,4R)-9-(difluoromethyl)-5,5-difluoro-7,8-diazatricyclo[4.3.0.0^2,4]nona-1(6),8-dien-7-yl]acetamide], for which the half-maximal effective concentration (EC50) in data set [1] stood at 0.005 nM.

Regarding `Cc1cc(C2(F)CCC(F)(F)CC2)nc2nc([C@H](Cc3cc(F)cc(F)c3)NC(=O)Cn3nc(C(F)F)c4c3C(F)(F)[C@@H]3C[C@H]43)n(-c3ccc(Cl)c4c(NS(C)(=O)=O)nn([C@H](C)C(=O)N5C[C@H](F)C[C@H](F)C5)c34)c(=O)c12` (atropisomer, axis not shown; (P)) [Example 755, N-[(1S)-1-[(3P)-3-{4-chloro-1-[(2R)-1-[(3R,5S)-3,5-difluoropiperidin-1-yl]-1-oxopropan-2-yl]-3-methanesulfonamido-1H-indazol-7-yl}-5-methyl-4-oxo-7-(1,4,4-trifluorocyclohexyl)-3H,4H-pyrido[2,3-d]pyrimidin-2-yl]-2-(3,5-difluorophenyl)ethyl]-2-[(2S,4R)-9-(difluoromethyl)-5,5-difluoro-7,8-diazatricyclo[4.3.0.0^2,^4]nona-1(6),8-dien-7-yl]acetamide], the EC50 in data set [1] came out at 0.027 nM.

Broadly, the EC50 is the concentration that produces a half-maximal response. One may read the CC50 as the concentration at which the toxic effect on the cells reaches its halfway point.

Values taken from patent publication US12594276B2, “Inhibitors of human immunodeficiency virus replication” (ViiV Healthcare UK (No.5) Limited, priority 2024, dated 2026).
